Assay results as given in PubChem BioAssay (NCI).
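Grown in 96-well plates, cells were treated for 48 hours with each compound at five concentrations. Insufficient inhibition: endpoint recorded as highest concentration tested. At the TGI there is no net growth.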

Assays:
Assay in all cases: NCI tumour cell line growth inhibition, 48 h
[1] = tested on: HOP-18 NSCLC
[2] = tested on: P388 leukemia
[3] = tested on: SN12K1 renal
[4] = tested on: XF 498 CNS
[5] = tested on: DMS 273 small cell lung
[6] = tested on: M19-MEL melanoma
[7] = tested on: SNB-78 CNS
[8] = tested on: RXF-631 renal

Which TGI [1] does the source give for O=c1ccn([C@@H]2C=C(CO)[C@@H](O)[C@H]2O)c(=O)[nH]1 here?
The TGI was over 625 µM.

What about the TGI [2] of the same compound?
Its TGI is over 625 µM.

What about the TGI [3] of the same compound?
Its TGI is over 625 µM.

And the TGI [4]?
Its TGI is under 62.5 nM.

And the TGI [5]?
Its TGI is over 625 µM.

How did the TGI [6] turn out when O=C(/C=C/CC(O)(c1ccccc1)c1ccccc1)Nc1ccccc1Cl was run?
The TGI was over 100 µM.

Which results are given for CCc1nc2c([nH]1)C(=O)c1ccccc1C2=O?
TGI [6]: 31.8 µM; TGI [7]: > 100 µM; TGI [4]: 67100 nM; TGI [5]: > 100 µM

With O=C(CCl)Nc1ccc(C(=O)N/N=C/c2ccc(Cl)cc2)cc1 as the compound, how does the TGI [6] read?
The TGI was 25.6 µM.

And the TGI [7]?
Its TGI is 15.8 µM.

What about the TGI [4] of the same compound?
Its TGI is 3000 nM.

What about the TGI [5] of the same compound?
The TGI was 4.12 µM.

What does the source list for O=C1CN(c2ccccc2)C(=O)C1C(=O)Nc1ccc(Cl)c(Cl)c1 (configuration not stated)?
TGI [6]: 14.8 µM; TGI [8]: 14.3 µM; TGI [5]: 15.1 µM
